Measured values as given in patent publication US10052320B2, “Substituted quinoxalines as FGFR kinase inhibitors” (ASTEX THERAPEUTICS LIMITED, priority 2011, dated 2018).
Like-named read-outs stand apart in the source and are kept apart here.

Experiments:
FGFR3 (h) = FGFR3 (h) (Homo sapiens, UniProt P22607); assay: FGFR3 (enzymatic assay), TR-FRET; assay type: biochemical; settings: read-out: FGFR 3 pIC50 (converted)
Method: In a final reaction volume of 30 μL, FGFR3 (h) (40 ng/ml) was incubated with 50 mM HEPES pH 7.5, 6 mM MnCl2, 1 mM DTT, 0.1 mM Na3VO4, 0.01% Triton-X-100, 500 nM Btn-Flt3 and 25 μM ATP in the presence of compound (1% DMSO final). […] Time-Resolved Fluorescence Resonance Energy Transfer (TR-FRET) signal (ex340 nm. Em 620 nm, em 655 nm) was measured afterwards and results are expressed in RFU (Relative Fluorescence Units).

[1] = biological target: Ba/F3-FGFR1-transfected cells (Homo sapiens, UniProt P11362); assay: Ba/F3-FGFR1 (minus IL3) cellular proliferation assay, Alamar Blue; assay type: cell-based; settings: for BAF3-FGFR 1 (MIN IL3) 384 well pIC50: minus IL3, 384 well; for BAF3-FGFR 1 (MIN IL3) 96 well pIC50: minus IL3, 96 well
How it was run: (§1)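 24 h cmpd exposure, 37 °C/5% CO2; phenol red-free RPMI-1640, 10% FBS; 20000 cells/well (384) or 10000 cells/well (96); Alamar Blue (0.15 mM resazurin) 4 h; RFU ex 540/em 590.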

[2] = system: Ba/F3-FGFR1-transfected cells in the presence of 10 ng/ml murine IL3; assay: Ba/F3-FGFR1 (plus IL3) cellular proliferation counterscreen, Alamar Blue; assay type: cell-based; settings: Mus musculus
How it was run: as §1

[3] = biological target: Ba/F3-FGFR3-transfected cells (Homo sapiens, UniProt P22607); assay: Ba/F3-FGFR3 (minus IL3) cellular proliferation assay, Alamar Blue; assay type: cell-based; settings: for BAF3-FGFR 3 (MIN IL3) 384 well pIC50: minus IL3, 384 well; for BAF3-FGFR 3 (MIN IL3) 96 well pIC50: minus IL3, 96 well
How it was run: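 FGFR3-Ba/F3 cells, 20000/well (384-well) or 10000/well (96-well), phenol red free RPMI + 10% FBS; cpd in DMSO; 24 h, 37 °C/5% CO2; Alamar Blue 4 h; RFU ex540/em590.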

[4] = plus IL3, 384 well, read-out: BAF3-FGFR 1 (PLUS IL3) 384 well pIC50 (converted)
[5] = plus IL3, 96 well, read-out: BAF3-FGFR 1 (PLUS IL3) 96 well pIC50 (converted)

Ba/F3-FGFR1-transfected cells, sequence (P11362 whole entry, change not shown): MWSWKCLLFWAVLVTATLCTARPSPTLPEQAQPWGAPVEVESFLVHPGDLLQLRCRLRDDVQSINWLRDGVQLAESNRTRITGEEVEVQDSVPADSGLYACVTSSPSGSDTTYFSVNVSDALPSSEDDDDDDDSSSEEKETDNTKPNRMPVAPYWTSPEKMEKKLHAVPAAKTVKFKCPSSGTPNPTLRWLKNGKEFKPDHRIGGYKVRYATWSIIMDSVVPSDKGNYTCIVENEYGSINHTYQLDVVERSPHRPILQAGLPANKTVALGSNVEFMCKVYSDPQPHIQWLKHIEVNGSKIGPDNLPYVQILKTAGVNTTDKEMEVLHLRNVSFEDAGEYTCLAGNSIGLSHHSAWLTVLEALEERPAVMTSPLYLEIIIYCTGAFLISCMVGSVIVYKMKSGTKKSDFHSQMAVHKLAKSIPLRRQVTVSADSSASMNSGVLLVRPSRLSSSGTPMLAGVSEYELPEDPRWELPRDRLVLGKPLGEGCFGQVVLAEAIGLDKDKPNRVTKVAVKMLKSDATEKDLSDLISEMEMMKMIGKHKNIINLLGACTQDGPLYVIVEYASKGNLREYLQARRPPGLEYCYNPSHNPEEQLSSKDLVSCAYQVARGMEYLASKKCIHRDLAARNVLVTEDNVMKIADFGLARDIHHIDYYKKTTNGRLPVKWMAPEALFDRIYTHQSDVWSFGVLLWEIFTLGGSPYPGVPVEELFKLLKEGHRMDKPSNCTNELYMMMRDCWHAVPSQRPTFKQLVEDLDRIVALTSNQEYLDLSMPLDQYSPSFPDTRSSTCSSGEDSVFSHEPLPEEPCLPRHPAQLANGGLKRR
FGFR3 (h), sequence (P22607 23-806): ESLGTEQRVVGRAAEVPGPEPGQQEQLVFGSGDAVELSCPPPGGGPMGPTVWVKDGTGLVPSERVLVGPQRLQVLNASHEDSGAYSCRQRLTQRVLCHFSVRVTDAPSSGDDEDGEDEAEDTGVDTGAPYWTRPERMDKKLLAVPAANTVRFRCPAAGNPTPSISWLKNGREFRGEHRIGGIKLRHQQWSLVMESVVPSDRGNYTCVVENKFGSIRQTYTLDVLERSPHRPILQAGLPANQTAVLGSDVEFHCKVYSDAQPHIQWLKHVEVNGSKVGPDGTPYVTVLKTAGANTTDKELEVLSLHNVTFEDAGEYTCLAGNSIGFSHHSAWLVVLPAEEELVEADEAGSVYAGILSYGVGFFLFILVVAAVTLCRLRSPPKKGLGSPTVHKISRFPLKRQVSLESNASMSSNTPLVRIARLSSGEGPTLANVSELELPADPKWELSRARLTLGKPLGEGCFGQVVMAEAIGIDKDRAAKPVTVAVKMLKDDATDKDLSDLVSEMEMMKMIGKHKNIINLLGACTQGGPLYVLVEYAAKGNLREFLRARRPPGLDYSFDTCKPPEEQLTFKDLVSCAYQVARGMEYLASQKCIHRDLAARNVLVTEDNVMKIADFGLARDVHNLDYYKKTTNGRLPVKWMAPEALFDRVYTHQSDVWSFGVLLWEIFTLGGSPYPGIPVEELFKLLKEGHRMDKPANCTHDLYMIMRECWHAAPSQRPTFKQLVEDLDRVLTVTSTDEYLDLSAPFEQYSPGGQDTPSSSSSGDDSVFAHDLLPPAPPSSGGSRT
Ba/F3-FGFR3-transfected cells, sequence (P22607 whole entry, change not shown): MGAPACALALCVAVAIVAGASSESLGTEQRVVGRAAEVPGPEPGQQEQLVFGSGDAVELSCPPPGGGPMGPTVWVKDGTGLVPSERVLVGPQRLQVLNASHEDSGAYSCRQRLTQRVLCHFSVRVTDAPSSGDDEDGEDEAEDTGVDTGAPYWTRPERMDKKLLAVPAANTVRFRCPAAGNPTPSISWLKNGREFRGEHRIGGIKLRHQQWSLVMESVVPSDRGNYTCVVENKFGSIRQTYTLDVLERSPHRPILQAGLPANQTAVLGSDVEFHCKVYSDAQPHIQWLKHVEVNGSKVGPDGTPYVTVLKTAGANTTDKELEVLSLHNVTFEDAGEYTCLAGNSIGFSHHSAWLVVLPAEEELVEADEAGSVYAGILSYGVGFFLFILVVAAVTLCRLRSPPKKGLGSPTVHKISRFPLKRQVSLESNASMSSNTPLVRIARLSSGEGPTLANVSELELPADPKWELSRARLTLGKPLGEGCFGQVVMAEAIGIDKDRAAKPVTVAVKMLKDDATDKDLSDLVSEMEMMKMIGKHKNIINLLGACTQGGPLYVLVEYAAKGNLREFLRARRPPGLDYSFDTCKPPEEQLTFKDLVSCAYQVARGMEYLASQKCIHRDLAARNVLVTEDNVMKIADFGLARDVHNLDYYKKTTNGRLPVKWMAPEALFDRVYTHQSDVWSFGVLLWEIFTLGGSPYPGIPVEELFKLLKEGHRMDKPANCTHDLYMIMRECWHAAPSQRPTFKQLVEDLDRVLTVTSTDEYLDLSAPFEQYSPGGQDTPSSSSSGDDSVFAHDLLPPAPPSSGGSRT

SMILES	IC50 (FGFR3 (h)) [nM]	BAF3-FGFR 1 (MIN IL3) 384 well pIC50 [1]	BAF3-FGFR 3 (MIN IL3) 384 well pIC50 [3]	BAF3-FGFR 1 (MIN IL3) 96 well pIC50 [1]	BAF3-FGFR 3 (MIN IL3) 96 well pIC50 [3]	IC50 [2, 4] [nM]	IC50 [2, 5] [nM]
CNC(=O)c1cc(-c2cnc3ccc(N(CCN4CCCC4=O)c4cc(OC)cc(OC)c4)cc3n2)ccn1 [Compound 25]	282	5.05	5.13	–	–	> 10000	–
COc1cc(OC)cc(N(CC2CC2)c2ccc3ncc(-n4cnc(C)c4)nc3c2)c1 [Compound 30]	26.9	5.32	5.51	5.03	5.94	> 10000	> 10000
COc1cc(OC)cc(N(CC2CC2)c2ccc3ncc(-n4ccc(C)n4)nc3c2)c1 [Compound 31]	339	<5	<5	<5	<5	> 10000	> 10000
COc1cc(OC)cc(N(CC2CC2)c2ccc3ncc(-n4ccnc4C)nc3c2)c1 [Compound 32]	479	<5	<5	<5	<5	> 10000	> 10000
COc1cc(OC)cc(N(CCCO)c2ccc3ncc(-c4ccnc(C(=O)NCCCN)c4)nc3c2)c1 [Compound 33]	19.1	5.1	5.51	–	–	> 10000	–
COc1cc(OC)cc(N(CC2CC2)c2ccc3ncc(-c4cn(CCO)nn4)nc3c2)c1 [Compound 40]	49	5.24	~5.15	5.4	5.04	> 10000	> 10000
COc1cc(OC)cc(N(CC2CC2)c2ccc3ncc(-c4nnn[nH]4)nc3c2)c1 [Compound 41]	64.6	<5	<5	<5	<5	> 10000	> 10000
COc1cc(OC)cc(N(CCCO)c2ccc3ncc(-c4ccc(N5CCNCC5)nc4)nc3c2)c1 [Compound 48]	3.31	6.92	6.87	–	–	~5250	–
COc1cc(OC)cc(N(CC2CC2)c2ccc3ncc(-n4cncn4)nc3c2)c1 [Compound 50]	447	<5	<5	<5	<5	> 10000	> 10000
COc1cc(OC)cc(N(Cc2cccc(CN)n2)c2ccc3ncc(-c4ccc(N)nc4)nc3c2)c1 [Compound 51]	11	5.88	~5.77	–	–	> 10000	–
COc1cc(OC)cc(N(CC2CC2)c2ccc3ncc(-c4cnco4)nc3c2)c1 [Compound 55]	30.9	<5	~5.25	5.37	5.65	> 10000	> 10000
COc1cc(OC)cc(N(CC2CC2)c2ccc3ncc(-c4ccn[nH]4)nc3c2)c1 [Compound 58]	81.3	–	–	<5	5.56	> 10000	> 10000
COc1cc(OC)cc(N(CC2CC2)c2ccc3ncc(-c4nccn4C)nc3c2)c1 [Compound 60]	955	<5	<5	<5	<5	> 10000	> 10000
COc1cc(OC)cc(N(CC2CC2)c2ccc3ncc(-n4nccc4C)nc3c2)c1 [Compound 62]	> 1000	<5	<5	<5	<5	> 10000	> 10000
CCOC(=O)c1ncn(-c2cnc3ccc(N(CC4CC4)c4cc(OC)cc(OC)c4)cc3n2)c1C [Compound 65]	> 1000	<5	<5	<5	5.08	> 10000	> 10000
COc1cc(OC)cc(N(CCCO)c2ccc3ncc(-c4ccnc(N)c4)nc3c2)c1 [Compound 66]	2.09	7.16	~7.05	–	–	> 10000	–
COc1cc(OC)cc(N(CC2CC2)c2ccc3ncc(-c4cn[nH]n4)nc3c2)c1 [Compound 69]	61.7	5.01	<5	5.22	<5	> 10000	> 10000
COc1cc(OC)cc(N(CC2CC2)c2ccc3ncc(-c4cnnn4C)nc3c2)c1 [Compound 72]	389	5.18	<5	5.23	<5	> 10000	7940
COc1cc(OC)cc(N(CC(O)CO)c2ccc3ncc(-c4ccc(N)nc4)nc3c2)c1 (centres unmarked) [Compound 74]	4.37	6.62	6.69	–	–	> 10000	–

More lines, main results first:

IC50 (FGFR3 (h)) [nM]	BAF3-FGFR 1 (MIN IL3) 384 well pIC50 [1]	BAF3-FGFR 3 (MIN IL3) 384 well pIC50 [3]	BAF3-FGFR 1 (MIN IL3) 96 well pIC50 [1]	BAF3-FGFR 3 (MIN IL3) 96 well pIC50 [3]	SMILES	IC50 [2, 4] [nM]	IC50 [2, 5] [nM]
~347	5.08	5.09	–	–	CNC(=O)OCCN(c1cc(OC)cc(OC)c1)c1ccc2ncc(-c3ccc(NC(=O)OC(C)(C)C)nc3)nc2c1 [Compound 80]	> 10000	–
> 1000	<5	<5	<5	<5	COc1cc(OC)cc(N(CC2CC2)c2ccc3ncc(-c4nnnn4C)nc3c2)c1 [Compound 83]	> 10000	> 10000
117	<5	<5	–	–	COc1cc(OC)cc(N(CC2CC2)c2ccc3ncc(-c4ocnc4C)nc3c2)c1 [Compound 104]	> 10000	–
21.4	6.25	6.81	–	–	COc1cc(OC)cc(N(CC2CO2)c2ccc3ncc(-c4ccc(N)nc4)nc3c2)c1 (centres unmarked) [Compound 110]	> 10000	–
9.77	5.65	~6.17	–	–	COc1cc(OC)cc(N(CCO)c2ccc3ncc(-c4ccc(OC)nc4)nc3c2)c1 [Compound 111]	> 10000	–
7.41	6.11	~6.39	–	–	COc1cc(OC)cc(N(CCCO)c2ccc3ncc(-c4cccnc4)nc3c2)c1 [Compound 112]	> 10000	–
3.24	5.9	6.59	–	–	CNc1ccc(-c2cnc3ccc(N(CCCO)c4cc(OC)cc(OC)c4)cc3n2)cn1 [Compound 116]	> 10000	–
11.7	6.67	6.25	–	–	COc1cc(OC)cc(N(CCCO)c2ccc3ncc(-c4ccc(F)nc4)nc3c2)c1 [Compound 117]	> 10000	–
3.98	5.71	~6.09	–	–	COc1cc(OC)cc(N(CCO)c2ccc3ncc(-c4ccccc4)nc3c2)c1 [Compound 120]	> 10000	–
37.2	5.29	5.49	–	–	CNC(=O)c1cc(-c2cnc3ccc(N(CCCNCC(F)(F)F)c4cc(OC)cc(OC)c4)cc3n2)ccn1 [Compound 122]	> 10000	–
14.5	5.22	5.57	–	–	COc1cc(OC)cc(N(CCO)c2ccc3ncc(-c4ccnc(C(=O)NCCCN)c4)nc3c2)c1 [Compound 123]	> 10000	–
3.39	6.24	~6.64	–	–	COc1cc(OC)cc(N(CCCO)c2ccc3ncc(-c4ccc(N5CCOCC5)nc4)nc3c2)c1 [Compound 124]	> 10000	–
